{"source": "patent US5674977A", "about": "“Branched synthetic peptide conjugate” (The Ontario Cancer Institute, priority 1994, dated 1997)", "system": "CHO cells", "test": "MTT cell viability (cytotoxicity) assay", "type": "cell-based, Chinese hamster", "details": "concentrations as high as 100 μM, 2 hour incubation period", "text": "The cytotoxicity of peptide 1 and octopeptides 2-5 was established in Chinese hamster ovary (CHO) cells in order to select a minimal octopeptide concentration suitable for detecting the constructs by flow cytometry and fluorescence microscopy on live cells. The cytotoxicity of each construct was established using the MTT cell viability assay (FIG. 1; Mosmann, 1983). […] Linear polymers having a mass of less than 13 kDa were shown not to be cytotoxic to HeLa cells (Arnold et al., 1979). […] At a concentration of 1 μM, none of the octopeptides were cytotoxic to CHO cells (FIG. 1). […] The penetration and localization of acridine and rhodamine chromophores in viable CHO cells were observed during fluorescence microscopy and flow cytometry experiments by exposing cells to concentrations of octopeptides ranging from 0.1 to 1 μM. […]\nThe quantitative MTT colorimetric assay developed by Mosmann (1983) was used to determine the toxicity of peptide constructs of the invention toward CHO cells. […] The blue MTT formazan product generated by living cells was quantified by measuring the optical density of the cellular extract at 620 nm. […] Absorbance values were translated into measurements of cell viability and reflect the average of experiments performed in triplicate.", "note": "Numbered stars: 1 amine (or outer) side, 2 acyl side, 3 side chain; on linkers, the order of the positions; unused ones are H or OH. Square brackets hold non-standard residues; d marks the D form. Peptide text beside a SMILES is read from it. X1 = C[C@@H](O)[C@@H](C(=O)[*:2])N(c1c2ccccc2nc2ccccc12)[*:1]", "data": [{"smiles": "CC(C)[C@H](NC(=O)[C@H](CCCCN)NC(=O)[C@H](CCCNC(=N)N)NC(=O)[C@H](CCCCN)NC(=O)[C@H](CCCCN)NC(=O)[C@H](CCCCN)NC(=O)[C@@H]1CCCN1C(=O)[C@@H]1CCCN1C(=O)[C@@H](Nc1c2ccccc2nc2ccccc12)[C@@H](C)O)C(=O)N[C@@H](CCC(=O)O)C(=O)N[C@@H](CC(=O)O)C(=O)N1CCC[C@H]1C(=O)N[C@@H](CCCCN)C(=O)N[C@@H](CCCCN)C(=O)N[C@@H](CCCCN)C(=O)N[C@@H](CCCCN)C(=O)N[C@@H](CCCCN)C(=O)O", "note": "[peptide 1, Acr-NLS-CTS] (H-[X1]PPKKKRKVEDPKKKKK-OH)", "values": [{"measurement": "toxicity to CHO cells", "value": "not toxic"}]}]}
